This note sets out measurements from patent US20150218212A1, “FLUORINATED EPOXYKETONE-BASED TETRAPEPTIDE COMPOUNDS AND USES THEREOF AS PROTEASOME INHIBITORS” (FLUORINOV PHARMA INC., priority 2012, published 2015).

The structures appear in SMILES notation. Where two headings read alike, the source gives them in different places.

Test [1] deals with T1, proteasome Chymotrypsin-like (CT-L) activity (Mus musculus, UniProt O09061+O55234).
T1 construct: RBCs were lysed with assay lysis buffer and incubated on ice for 30 minutes; from tissue; host or cells: red blood cells of NOD/SCID mice
Put plainly: Pharmacodynamic proteasome activity in murine red blood cells, CT-L. It counts as in vivo, NOD/SCID mice. The settings on record: iv, mice, 2 mg/kg i.v. On the procedure: Cells were harvested by centrifugation at 1,200 rpm at room temperature. Cell pellets were washed with PBS (phosphate buffered saline) and lysed with assay lysis buffer (50 mM HEPES (N-2-hydroxyethylpiperazine-N′-2-ethanesulfonic acid), pH 7.5; 150 mM NaCl; 1% Triton X-100; 2 mM ATP). Cell lysates were incubated on ice for 30 minutes, mixed by vortex every 5 minutes, and then centrifuged at 12,000 g for 10 minutes. The supernatant was transferred to a 96-well plate. For each assay, 10 μg of total protein were incubated for 1 hour at 37° C. with increasing concentrations (1 nM to 10 μM) of test compound diluted in assay buffer (50 mM tris-HCl (tris(hydroxymethyl)aminomethane-HCl), pH 7.5; 150 mM NaCl). DMSO alone was used as a control in every assay plate. After incubation, a specific fluorogenic proteasome substrate was added to each assay reaction at a final concentration of 40 μM in a total volume of 100 μL. N-Succinyl-Leu-Leu-Val-Tyr-7-amino-4-methylcoumarin (Suc-Leu-Leu-Val-Tyr-AMC) was used for measuring chymotrypsin-like (CT-L) activity, t-butoxycarbonyl-Leu-Arg-Arg-7-amino-4-methylcoumarin (Boc-Leu-Arg-Arg-AMC) for trypsin-like (T-L) activity, and benzyloxycarbonyl-L-leucyl-L-leucyl-L-glutamyl-7-amino-4-methylcoumarin (Z-Leu-Leu-Glu-AMC) for caspase-like (C-L) activity. The excitation wavelength was set at 360 nm and the fluorescence emission wavelength of AMC was detected at 460 nm. The fluorescence of free AMC released during the enzymatic reaction was measured with a SpectraMax M5 fluorescent spectrophotometric plate reader (Molecular Devices, Sunnyvale, Calif.). AMC release rate was measured at 37° C. in a kinetic mode, recording every 5 minutes for 30 minutes. Experiments were performed in triplicate and repeated at least twice.
All mouse experiments were performed in accordance with approval from the Ontario Cancer Institute institutional animal review board. Five- to six-week-old male non-obese diabetic/severe combined immunodeficient (NOD/SCID) mice were grouped randomly (n=3 mice per group). Mice were administered vehicle (5% DMSO, 20% Cremophor) or compounds of Formula I at different doses either intravenously or by oral gavage, and venous blood samples (20-50 μL) were collected from each mouse over 24 hours. Blood samples were mixed with heparin (APP Pharmaceuticals; Schaumburg, Ill.) in 0.5 mL tubes in accordance with the manufacturer's instructions. After centrifugal separation at 3,000 g for 10 minutes, red blood cells (RBCs) in the bottom layer were transferred into a new tube and stored at −70° C. until use. RBCs were lysed with assay lysis buffer and incubated on ice for 30 minutes, mixing by vortex every 5 minutes, and then centrifuged at 12,000 g for 10 minutes. The supernatant was transferred to a 96-well plate and proteasome activity was measured as described above for tumor cell lysates.
Proteasome subunit activity (Chymotrypsin-like, Trypsin-like, Caspase-like, CT-L, T-L, C-L, respectively) were monitored over the course of 24 hrs following […] administration of representative compounds of Formula I. NOD/SCID mice were treated with compounds of Formula I (2 mg/kg by iv administration) or vehicle control and carfilzomib for up to 24 hours, as described above. Table 9 summarizes the data on pharmacodynamic activity of representative compounds of Formula I following a dose of 2 mg/kg intravenous (i.v) administration to mice. Data are presented as mean residual activity (SEM) relative to vehicle treated controls.

Test [2] relates to MDA-MB-435. Description: NCI screening panel, MDA-MB-435 (Melanoma). It is filed as cell-based, human. On the procedure: Representative compounds of Formula I were screened using the National Cancer Institute (NCI) screening panel, which consists of a panel of human tumor cell lines, representing leukemia, melanoma, and cancers of the lung, colon, ovary, breast, prostate and renal system.
After 24 h, two plates of each cell line are fixed in situ with TCA, to represent a measurement of the cell population for each cell line at the time of drug addition (Tz). Experimental drugs are solubilised in dimethyl sulfoxide at 400-fold the desired final maximum test concentration and stored frozen prior to use. At the time of drug addition, an aliquot of frozen concentrate is thawed and diluted to twice the desired final maximum test concentration with complete medium containing 50 μg/mL gentamicin. Additional four, 10-fold or ½ log serial dilutions are made to provide a total of five drug concentrations plus control. Aliquots of 100 μl of these different drug dilutions are added to the appropriate microtiter wells already containing 100 μl of medium, resulting in the required final drug concentrations.
Following drug addition, the plates are incubated for an additional 48 h at 37° C., 5% CO2, 95% air, and 100% relative humidity. For adherent cells, the assay is terminated by the addition of cold TCA (trichloroacetic acid). Cells are fixed in situ by the gentle addition of 50 μl of cold 50% (w/v) TCA (final concentration, 10% TCA) and incubated for 60 minutes at 4° C. The supernatant is discarded, and the plates are washed five times with tap water and air dried. Sulforhodamine B (SRB) solution (100 μl) at 0.4% (w/v) in 1% acetic acid is added to each well, and plates are incubated for 10 minutes at room temperature. After staining, unbound dye is removed by washing five times with 1% acetic acid and the plates are air dried. Bound stain is subsequently solubilised with 10 mM trizma base, and the absorbance is read on an automated plate reader at a wavelength of 515 nm. For suspension cells, the methodology is the same except that the assay is terminated by fixing settled cells at the bottom of the wells by gently adding 50 μl of 80% TCA (final concentration, 16% TCA). Using the seven absorbance measurements [time zero, (Tz), control growth, (C), and test growth in the presence of drug at the five concentration levels (Ti)], the percentage growth is calculated at each of the drug concentrations levels. Percentage growth inhibition is calculated as: [(Ti−Tz)/(C−Tz)]×100 for concentrations for which Ti>/=Tz and [(Ti−Tz)/Tz]×100 for concentrations for which Ti<Tz.
Three dose response parameters are calculated for each experimental agent. Growth inhibition of 50% (GI50) is calculated from [(Ti−Tz)/(C−Tz)]×100=50, which is the drug concentration resulting in a 50% reduction in the net protein increase (as measured by SRB staining) in control cells during the drug incubation. The drug concentration resulting in total growth inhibition (TGI) is calculated from Ti=Tz. The LC50 (concentration of drug resulting in a 50% reduction in the measured protein at the end of the drug treatment as compared to that at the beginning) indicating a net loss of cells following treatment is calculated from [(Ti−Tz)/Tz]×100=−50. Values are calculated for each of these three parameters if the level of activity is reached. However, if the effect is not reached or is exceeded, the value for that parameter is expressed as greater or less than the maximum or minimum concentration tested.

[3] abbreviates: 30 min, read-out: Chymotrypsin-like (CT-L) mean residual activity relative to vehicle treated controls.
Setting [4] is: 24 hrs, read-out: Chymotrypsin-like (CT-L) mean residual activity relative to vehicle treated controls.
Setting [5] is: time 0, read-out: Chymotrypsin-like (CT-L) mean residual activity relative to vehicle treated controls.

Regarding `CC(C)C[C@H](NC(=O)[C@H](COC(F)F)NC(=O)CN1CCOCC1)C(=O)N[C@@H](COC(F)F)C(=O)N[C@@H](CC(C)C)C(=O)[C@@]1(C)CO1` [Example 1, (2S)—N-[(1S)-1-(difluoromethoxymethyl)-2-[[(1S)-3-methyl-1-[(2R)-2-methyloxirane-2-carbonyl]butyl]amino]-2-oxo-ethyl]-2-[[(2S)-3-(difluoromethoxy)-2-[(2-morpholinoacetyl)amino]propanoyl]amino]-4-methyl-pentanamide], in test [1] (setting [3]), the remaining activity at 2 mg/kg was determined as 20%. Also, in test [1] (setting [4]), the remaining activity at 2 mg/kg was 21%. Moreover, the remaining activity at 2 mg/kg in test [1] (setting [5]) came out at 100%. For the same molecule, in test [2], the Log10GI50 is −7.78, the Log10LC50 was −7.07 and the Log10TGI50 was −7.42.
Consider `CC(C)C[C@H](NC(=O)[C@H](COC(F)F)NC(=O)CN1CCOCC1)C(=O)N[C@@H](Cc1ccccc1)C(=O)N[C@@H](CC(C)C)C(=O)[C@@]1(C)CO1` [Example 2, (2S)-N-[(1S)-1-benzyl-2-[[(1S)-3-methyl-1-[(2R)-2-methyloxirane-2-carbonyl]butyl]-amino]-2-oxo-ethyl]-2-[[(2S)-3-(difluoromethoxy)-2-[(2-morpholinoacetyl)amino]propanoyl]amino]-4-methyl-pentanamide], for which the remaining activity at 2 mg/kg in test [1] (setting [3]) stood at 29%. Moreover, the remaining activity at 2 mg/kg in test [1] (setting [4]) is 24%. Moreover, the remaining activity at 2 mg/kg in test [1] (setting [5]) is 100%. In test [2], this molecule gave a Log10GI50 of −7.99, a Log10LC50 of −7.14 and a Log10TGI50 of −7.56.
Turning to `CC(C)C[C@H](NC(=O)[C@H](COC(F)F)NC(=O)CN1CCOCC1)C(=O)N[C@@H](Cc1ccccc1)C(=O)N[C@@H](Cc1ccccc1)C(=O)[C@@]1(C)CO1` [Example 3, (2S)-N-[(1S)-1-benzyl-2-[[(1S)-1-benzyl-2-[(2R)-2-methyloxiran-2-yl]-2-oxo-ethyl]amino]-2-oxo-ethyl]-2-[[(2S)-3-(difluoromethoxy)-2-[(2-morpholinoacetyl)-amino]propanoyl]amino]-4-methyl-pentan-amide], in test [1] (setting [3]), the remaining activity at 2 mg/kg stood at 29%. Also, the remaining activity at 2 mg/kg in test [1] (setting [4]) came to 31%. In addition, the remaining activity at 2 mg/kg in test [1] (setting [5]) turned out to be 100%. In test [2], this molecule displayed a Log10GI50 below −8.00, a Log10LC50 of −7.34 and a Log10TGI50 of −7.90.
Take `CC(C)C[C@H](NC(=O)[C@H](COC(F)F)NC(=O)CN1CCOCC1)C(=O)N[C@@H](COC(F)F)C(=O)N[C@@H](Cc1ccccc1)C(=O)[C@@]1(C)CO1` [Example 4, (2S)-N-[(1S)-2-[[(1S)-1-benzyl-2-[(2R)-2-methyloxiran-2-yl]-2-oxo-ethyl]amino]-1-(difluoromethoxymethyl)-2-oxo-ethyl]-2-[[(2S)-3-(difluoromethoxy)-2-[(2-mor-pholinoacetyl)amino]propanoyl]amino]-4 methyl-pentanamide]: the remaining activity at 2 mg/kg in test [1] (setting [3]) worked out at 34%. In addition, the remaining activity at 2 mg/kg in test [1] (setting [4]) came out at 37%. The remaining activity at 2 mg/kg in test [1] (setting [5]) worked out at 100%. Besides, in test [2], the Log10GI50 is −7.79, the Log10LC50 is given as −7.09 and the Log10TGI50 is recorded as −7.44.
On to `CC(C)C[C@H](NC(=O)[C@H](COC(F)F)NC(=O)[C@H](COC(F)F)NC(=O)[C@H](CCc1ccccc1)NC(=O)CN1CCOCC1)C(=O)[C@@]1(C)CO1` [Example 7, (2S)-N-[(1S)-1-(difluoromethoxymethyl)-2-[[(1S)-1-(difluoromethoxymethyl)-2-[[(1S)-3-methyl-1-[(2R)-2-methyloxirane-2-carbo-nyl]butyl]amino]-2-oxo-ethyl]amino]-2-oxo-ethyl]-2-[(2-morpholinoacetyl)amino]-4-phenyl-butanamide], for which the remaining activity at 2 mg/kg in test [1] (setting [3]) was 35%; in test [1] (setting [4]) it was 30%; in test [1] (setting [5]), 100%. In test [2], this molecule gave a Log10GI50 of −7.83. The molecule further yielded a Log10LC50 in test [2] of −7.12. The Log10TGI50 in test [2] was −7.47.
As to `CC(C)C[C@H](NC(=O)[C@H](Cc1ccccc1)NC(=O)[C@H](COC(F)F)NC(=O)[C@H](COC(F)F)NC(=O)CN1CCOCC1)C(=O)[C@@]1(C)CO1` [Example 11, (2S)-2-[[(2S)-3-(difluoromethoxy)-2-[[(2S)-3-(difluoromethoxy)-2-[(2-morpholinoacetyl)-amino]propanoyl]amino]propanoyl]amino]-N-[(1S)-3-methyl-1-[(2R)-2-methyloxirane-2-carbonyl]butyl]-3-phenyl-propanamide], the remaining activity at 2 mg/kg in test [1] (setting [3]) was found to be 30%. Moreover, the remaining activity at 2 mg/kg in test [1] (setting [4]) stood at 28%. Besides, the remaining activity at 2 mg/kg in test [1] (setting [5]) amounted to 100%. In test [2], the Log10GI50 is listed as −7.90, the Log10LC50 is listed as −7.24 and the Log10TGI50 was −7.57.
